According to patent US20250136607A1 (REGOR PHARMACEUTICALS, INC., priority 2021, published 2025):
Like-named read-outs stand apart in the source and are kept apart here.

System: Citrullinated Histone H3 in dHL-60 cells (differentiated HL-60)
Assay: dHL-60 Cit-H3 ELISA assay
Format: cell-based, human
Settings: read-out: Average IC50 Abs
How it was run: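 HL-60 cells differentiated 72 h with DMF, plated at 1×10^5/well, pretreated 30 min with compound (8-point 3-fold series, 0.2% DMSO), then stimulated 3 h at 37 °C with 25 μM A23187 plus S7 nuclease. Supernatant citrullinated H3 quantified by HRP ELISA at 450 nm; IC50 by four-parameter fit.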

[1] = stimulation with 25 μM A23187 for 3 h
[2] = Homo sapiens, HL-60, 3 h, stimulation with 25 μM A23187 for 3 h

Row | IC50 [1] | IC50 [2] | Structure (SMILES) | also measured
1 | ≤ 100 nM |  | CCC1CN(CCCO)c2cccc3cc(-c4nc5cc(C(=O)N6C[C@H](N)C[C@@H](F)C6)cc(OC)c5n4C)n1c23 (single isomer, unassigned) [Example 82] | 
2 | 500 to 5000 nM |  | CCC1CN(CCCO)c2cccc3cc(-c4nc5cc(C(=O)N6C[C@H]7CC[C@@H]6[C@@H]7N)cc(OC)c5n4C)n1c23 (single isomer, unassigned) [Example 86] | 
3 | ≤ 100 nM |  | CCC1CN(CCCO)c2cccc3cc(-c4nc5cc(C(=O)N6C[C@H]7CC[C@@H]6[C@@H]7N)cc(OC)c5n4C)n1c23 (single isomer, unassigned) [Example 87] | 
4 |  | 100 to 500 nM | CCC1CN(CCCO)c2cccc3cc(-c4nc5cc(C(=O)N6C[C@H](N)C[C@@H](F)C6)cc(F)c5n4C)n1c23 (stereo partly drawn) [Example 75, ((3R,5R)-3-amino-5-fluoropiperidin-1-yl)(2-(3-ethyl-1-(3-hydroxypropyl)-2,3-dihydro-1H-pyrrolo[1,2,3-de]quinoxalin-5-yl)-7-fluoro-1-methyl-1H-benzo[d]imidazol-5-yl)methanone] | 
5 |  | 100 to 500 nM | C#CCn1c(-c2cc3cccc4c3n2C(CC)CN4CCCO)nc2cc(C(=O)N3C[C@H](N)C[C@@H](F)C3)cc(OC)c21 (stereo partly drawn) [Example 95, ((3R,5R)-3-amino-5-fluoropiperidin-1-yl)(2-(3-ethyl-1-(3-hydroxypropyl)-2,3-dihydro-1H-pyrrolo[1,2,3-de]quinoxalin-5-yl)-7-methoxy-1-(prop-2-yn-1-yl)-1H-benzo[d]imidazol-5-yl)methanone] | 
6 |  |  | CCC1CN(CCCO)c2cccc3cc(-c4nc5cc(C(=O)N6C[C@H]7CC[C@@H]6[C@@H]7N)cc(F)c5n4CC)n1c23 (stereo partly drawn) [Example 96, ((1R,4R,7R)-7-amino-2-azabicyclo[2.2.1]heptan-2-yl)(1-ethyl-2-(3-ethyl-1-(3-hydroxypropyl)-2,3-dihydro-1H-pyrrolo[1,2,3-de]quinoxalin-5-yl)-7-fluoro-1H-benzo[d]imidazol-5-yl)methanone] | IC50 (Homo sapiens, HL-60, stimulation with 25 μM A23187 for 3 h): ≤ 100 nM
